Read-outs that look alike come from different tables or passages of the source.
Tests used:
HIV-1IIIB = assay: TCID50 determination of drug-treated HIV-1IIIB; format: cell-based; parameters: TCID50, XTT Endpoint / TCID50, RT Endpoint / TCID50, P24 Endpoint: unit not given here
[1] = Toxicokinetics and 7-day toxicity after oral administration of CMX157 to rats; format: in vivo; conditions: for AUC0-24 / Cmax / Tmax / AUC(0-t) / AUC0-∞ / t1/2elim: rat plasma; for AUC(0-t): read-out: AUC0-24
HIV = assay: microbe, parasite or virus in culture; format: cell-based
[2] = virus treated 2 hours with 125 nM drug
[3] = virus treated 2 hours with 250 nM drug
[4] = virus treated 2 hours with 500 nM drug
[5] = virus treated 2 hours with 1000 nM drug

**Q.** Which “TCID50, XTT Endpoint” value (HIV-1IIIB; virus treated 15 minutes with 125 nM drug) does the source give for `CCCCCCCCCCCCCCCCOCCCOP(=O)(O)CO[C@H](C)Cn1cnc2c(N)ncnc21` [CMX157, Hexadecyloxypropyl-9-R-[2-(Phosphonomethoxy)Propyl]-Adenine] here?
**A.** Its value is 4027.

**Q.** What about the “Fold Decrease From VC, P24 Endpoint” value (HIV-1IIIB; [2]) of the same compound?
**A.** The value was “(4.0) Fold”.

**Q.** What about the “Fold Decrease From VC, RT Endpoint” value (HIV-1IIIB; [2]) of the same compound?
**A.** The value was “(1.6) Fold”.

**Q.** What about the “Fold Decrease From VC, XTT Endpoint” value (HIV-1IIIB; [2]) of the same compound?
**A.** Its value is “(4.0) Fold”.

**Q.** And the “TCID50, P24 Endpoint” value (HIV-1IIIB; [2])?
**A.** The value was 9058.

**Q.** And the “TCID50, RT Endpoint” value (HIV-1IIIB; [2])?
**A.** Its value is 51172.

**Q.** What about the “TCID50, XTT Endpoint” value (HIV-1IIIB; [2]) of the same compound?
**A.** Its value is 1132.

**Q.** And the “Fold Decrease From VC, P24 Endpoint” value (HIV-1IIIB; [3])?
**A.** Its value is “(3.4) Fold”.

**Q.** And the “Fold Decrease From VC, RT Endpoint” value (HIV-1IIIB; [3])?
**A.** Its value is “(3.2) Fold”.

**Q.** What about the “Fold Decrease From VC, XTT Endpoint” value (HIV-1IIIB; [3]) of the same compound?
**A.** Its value is “(4.0) Fold”.

**Q.** What about the “TCID50, P24 Endpoint” value (HIV-1IIIB; [3]) of the same compound?
**A.** Its value is 10765.

**Q.** What about the “TCID50, RT Endpoint” value (HIV-1IIIB; [3]) of the same compound?
**A.** Its value is 25588.

**Q.** What about the “TCID50, XTT Endpoint” value (HIV-1IIIB; [3]) of the same compound?
**A.** The value was 1132.

**Q.** And the “Fold Decrease From VC, P24 Endpoint” value (HIV-1IIIB; [4])?
**A.** Its value is “(4.8) Fold”.

**Q.** And the “Fold Decrease From VC, RT Endpoint” value (HIV-1IIIB; [4])?
**A.** Its value is “(2.2) Fold”.

**Q.** What about the “Fold Decrease From VC, XTT Endpoint” value (HIV-1IIIB; [4]) of the same compound?
**A.** The value was “(4.0) Fold”.

**Q.** And the “TCID50, P24 Endpoint” value (HIV-1IIIB; [4])?
**A.** Its value is 7604.

**Q.** And the “TCID50, RT Endpoint” value (HIV-1IIIB; [4])?
**A.** The value was 36227.

**Q.** What about the “TCID50, XTT Endpoint” value (HIV-1IIIB; [4]) of the same compound?
**A.** The value was 1132.

**Q.** What about the “Fold Decrease From VC, P24 Endpoint” value (HIV-1IIIB; [5]) of the same compound?
**A.** Its value is “(4.8) Fold”.

**Q.** And the “Fold Decrease From VC, RT Endpoint” value (HIV-1IIIB; [5])?
**A.** The value was “(2.2) Fold”.

**Q.** What about the “Fold Decrease From VC, XTT Endpoint” value (HIV-1IIIB; [5]) of the same compound?
**A.** The value was “(4.0) Fold”.

**Q.** What about the “TCID50, P24 Endpoint” value (HIV-1IIIB; [5]) of the same compound?
**A.** Its value is 7604.

**Q.** And the “TCID50, RT Endpoint” value (HIV-1IIIB; [5])?
**A.** Its value is 36227.

**Q.** And the “TCID50, XTT Endpoint” value (HIV-1IIIB; [5])?
**A.** Its value is 1132.

**Q.** And the AUC0-24 ([1]; oral CMX157 10 mg/kg, day 1)?
**A.** The AUC0-24 was 441.7 ng·h/mL.

**Q.** What about the Cmax ([1]; oral CMX157 10 mg/kg, day 1) of the same compound?
**A.** Its Cmax is 84.85 ng/mL.

**Q.** And the Tmax ([1]; oral CMX157 10 mg/kg, day 1)?
**A.** Its Tmax is 0.5 h.

**Q.** And the Cmax ([1]; oral CMX157 10 mg/kg, day 7)?
**A.** Its Cmax is 110.90 ng/mL.

**Q.** And the Tmax ([1]; oral CMX157 10 mg/kg, day 7)?
**A.** Its Tmax is 0.5 h.

**Q.** And the AUC(0-t) ([1]; oral CMX157 10 mg/kg, day 7)?
**A.** Its AUC(0-t) is 435 ng·h/mL.

**Q.** What about the AUC0-24 ([1]; oral CMX157 30 mg/kg, day 1) of the same compound?
**A.** Its AUC0-24 is 1,832.8 ng · h/ml.

**Q.** And the Cmax ([1]; oral CMX157 30 mg/kg, day 1)?
**A.** Its Cmax is 379.00 ng/mL.

**Q.** And the Tmax ([1]; oral CMX157 30 mg/kg, day 1)?
**A.** The Tmax was 2.0 h.

**Q.** What about the Cmax ([1]; oral CMX157 30 mg/kg, day 7) of the same compound?
**A.** Its Cmax is 202.50 ng/mL.

**Q.** And the Tmax ([1]; oral CMX157 30 mg/kg, day 7)?
**A.** The Tmax was 1.0 h.

**Q.** And the AUC(0-t) ([1]; oral CMX157 30 mg/kg, day 7)?
**A.** The AUC(0-t) was 1540 ng·h/mL.

**Q.** And the AUC0-24 ([1]; oral CMX157 100 mg/kg, day 1)?
**A.** The AUC0-24 was 5,408 ng · h/ml.

**Q.** And the “AUC0-∞” value ([1]; oral CMX157 100 mg/kg, day 1)?
**A.** The value was 5,429.8 ng · h/ml.

**Q.** And the Cmax ([1]; oral CMX157 100 mg/kg, day 1)?
**A.** The Cmax was 905.00 ng/mL.

**Q.** And the Tmax ([1]; oral CMX157 100 mg/kg, day 1)?
**A.** Its Tmax is 2.0 h.

**Q.** What about the t1/2elim ([1]; oral CMX157 100 mg/kg, day 1) of the same compound?
**A.** Its t1/2elim is 2.5 h.

**Q.** What about the “AUC0-∞” value ([1]; oral CMX157 100 mg/kg, day 7) of the same compound?
**A.** The value was 8,050.6 ng · h/ml.

**Q.** What about the Cmax ([1]; oral CMX157 100 mg/kg, day 7) of the same compound?
**A.** The Cmax was 685.50 ng/mL.

**Q.** What about the Tmax ([1]; oral CMX157 100 mg/kg, day 7) of the same compound?
**A.** The Tmax was 2.0 h.

**Q.** What about the t1/2elim ([1]; oral CMX157 100 mg/kg, day 7) of the same compound?
**A.** The t1/2elim was 1.6 h.

**Q.** What about the AUC(0-t) ([1]; oral CMX157 100 mg/kg, day 7) of the same compound?
**A.** Its AUC(0-t) is 8050 ng·h/mL.

**Q.** And the no-observed-adverse-effect level ([1]; rats, 7 days, highest dose tested)?
**A.** Its no-observed-adverse-effect level is “up to 100 mg/kg/day”.

**Q.** What about the IC50 (HIV; Human immunodeficiency virus 1, PANEL 1, WT) of the same compound?
**A.** Its IC50 is 1.72 nM.

**Q.** And the IC50 (HIV; Human immunodeficiency virus 1, PANEL 2, WT)?
**A.** Its IC50 is 1.61 nM.

**Q.** And the IC50 (HIV; Human immunodeficiency virus 1, PANEL 3, 6 TAMs, no 184)?
**A.** The IC50 was 8.5 nM.

**Q.** And the IC50 (HIV; Human immunodeficiency virus 1, PANEL 6, 6 TAMs + 184)?
**A.** The IC50 was 5.21 nM.

**Q.** And the IC50 (HIV; Human immunodeficiency virus 1, PANEL 7, 184V)?
**A.** The IC50 was 1.36 nM.

**Q.** What about the IC50 (HIV; Human immunodeficiency virus 1, PANEL 9, 69ins, no 184) of the same compound?
**A.** Its IC50 is 57.4 nM.

**Q.** What about the IC50 (HIV; Human immunodeficiency virus 1, PANEL 12, 69ins + 184) of the same compound?
**A.** The IC50 was 11.2 nM.

**Q.** What about the IC50 (HIV; Human immunodeficiency virus 1, PANEL 14, 65R, no 184) of the same compound?
**A.** The IC50 was 3.6 nM.

**Q.** What about the IC50 (HIV; Human immunodeficiency virus 1, PANEL 15, 65R + 184V) of the same compound?
**A.** The IC50 was 2.71 nM.

**Q.** And the IC50 (HIV; Human immunodeficiency virus 1, PANEL 17, L74V)?
**A.** The IC50 was 1.23 nM.

**Q.** And the IC50 (HIV; Human immunodeficiency virus 1, PANEL 19, L74V + M184V)?
**A.** The IC50 was 0.66 nM.

**Q.** And the IC50 (HIV; Human immunodeficiency virus 1, PANEL 26, 151M, no 184)?
**A.** The IC50 was 3.68 nM.

**Q.** What about the IC50 (HIV; Human immunodeficiency virus 1, PANEL 28, 151M + 184) of the same compound?
**A.** The IC50 was 3.05 nM.

**Q.** And the IC50 (HIV; Human immunodeficiency virus 1, PANEL 29, L74V − SDM)?
**A.** Its IC50 is 1.48 nM.

**Q.** And the IC50 (HIV; Human immunodeficiency virus 1, PANEL 30, M184V − SDM)?
**A.** The IC50 was 1.15 nM.

**Q.** And the IC50 (HIV; Human immunodeficiency virus 1, PANEL 31, K65R − SDM)?
**A.** The IC50 was 4.73 nM.

**Q.** And the IC50 (HIV; Human immunodeficiency virus 1, PANEL 33, T215Y)?
**A.** Its IC50 is 5 nM.

**Q.** And the IC50 (HIV; Human immunodeficiency virus 1, PANEL 34, T215Y + M184V)?
**A.** Its IC50 is 1.67 nM.

**Q.** And the IC50 (HIV; Human immunodeficiency virus 1, PANEL 35, M41L + T215Y)?
**A.** Its IC50 is 3.91 nM.

**Q.** What about the IC50 (HIV; Human immunodeficiency virus 1, PANEL 37, M41L + T215Y + M184V) of the same compound?
**A.** The IC50 was 2.88 nM.

**Q.** What about the IC50 (HIV; Human immunodeficiency virus 1, PANEL 38, M41L + L210W + T215Y) of the same compound?
**A.** Its IC50 is 5.96 nM.

**Q.** What about the IC50 (HIV; Human immunodeficiency virus 1, PANEL 39, M41L + L210W + T215Y) of the same compound?
**A.** The IC50 was 6.56 nM.

**Q.** What about the IC50 (HIV; Human immunodeficiency virus 1, PANEL 40, M41L + L210W + T215Y + M184V) of the same compound?
**A.** The IC50 was 1.89 nM.

**Q.** What about the IC50 (HIV; Human immunodeficiency virus 1, PANEL 41, M41L + L210W + T215Y + M184V) of the same compound?
**A.** The IC50 was 2.5 nM.

**Q.** What about the IC50 (HIV; Human immunodeficiency virus 1, PANEL 42, D67N + K70R) of the same compound?
**A.** The IC50 was 5.61 nM.

**Q.** And the IC50 (HIV; Human immunodeficiency virus 1, PANEL 44, D67N + K70R + T215F + K219E + M184V)?
**A.** Its IC50 is 1.92 nM.

**Q.** What about the IC50 (HIV; Human immunodeficiency virus 1, PANEL 45, L210W + T215Y) of the same compound?
**A.** The IC50 was 2.79 nM.

**Q.** And the IC50 (HIV; Human immunodeficiency virus 1, PANEL 46, D67N + K70E)?
**A.** The IC50 was 2.12 nM.

**Q.** What about the IC50 (HIV; Human immunodeficiency virus 1, PANEL 47, D67N + K70E + M184V) of the same compound?
**A.** The IC50 was 1.45 nM.

**Q.** What about the IC50 (HIV; Human immunodeficiency virus 1, PANEL 48, K70E + M184V) of the same compound?
**A.** The IC50 was 1.32 nM.

**Q.** What about the IC50 (HIV; Human immunodeficiency virus 1, read-out: IC50s against NRTI resistant HIV, range over panel) of the same compound?
**A.** Its IC50 is 1.2 to 57 nM.

Reference: patent US8993542B2, “Methods of treating viral infections” (priority 2008, dated 2015)
